Data published in patent US11420962B2, “Indene derivatives useful in treating pain and inflammation” (TARO PHARMACEUTICALS INC., priority 2018, dated 2022).

Experiments:
Rat DRG = experiment: Rat dorsal root ganglion excitability response (EFS, Ca2+ transients); format: cell-based; details: Rattus norvegicus; Table 3; electrical field stimulation, Ca5 indicator; read-out: Scoring (EC50, Rat DRG excitability)
Procedure: Dorsal root ganglions (DRGs) were dissected from adult rats. The tissue was processed, and cells were seeded into call culture plates (48 center wells of one quadrant in 384-well plates) and cultured for 2 days prior to Electrical field stimulation (EFS). To visualize the neuronal excitability response, intracellular Ca^+2 transients were monitored using the Ca^+2 indicator, Ca5. Ca5 was added to the cultures 1 h prior to EFS. Representative test compounds of the invention (i.e., test compounds) and reference compound, tetracaine, were added in concentration-response format encompassing six concentrations, performed in duplicate. The highest concentration tested was typically 30 μM with 1 in 3 dilutions generating the subsequent concentrations.
Effects on DRG excitability by the test compounds and standard were evaluated using four EFS protocols as disclosed in Table 2.
Experimental results were performed using two separate sets of plates using separate test compound and standard dilutions, to provide n=2. In the first set of experiments, compounds were added 24 h prior to EFS to increase the possibility to also detect more long-term compound effects. In the second set of experiments the compounds were added directly prior to EFS. Excitability response to EFS was analyzed as the average fluorescence ratio (peak/baseline) change per well. All plates were evaluated using high content imaging equipment post-EFS, imaging the Ca5 background staining to detect any possible compound-related toxic effects.
Average response by the standard compound, tetracaine, was 4.05 μM.

[1] = Metabolism by human liver microsomes; format: in vitro ADME; details: Table 8; 10 µM, in the presence of NADPH, 1 mg/mL protein
Procedure: Representative compounds of the invention (i.e., test compounds) and the positive control, 7-ethoxycoumarin, were prepared as stock solutions at 10 mM in DMSO and eventually diluted to 10 μM in the test plate, with an appropriate amount of acetonitrle and tris HCl buffer. Final DMSO and acetonitrile concentrations were […] and 0.5% respectively. NADPH was prepared in tris HCl buffer to a stock of 10 mM. A frozen aliquot of live microsomes was retrieved from the freezer (−80° C.) and thawed by placing the tube on wet ice. After thawing, the tubes were gently mixed and the required amount, transferred to tris HCl buffer. Test compounds or positive control were pre-incubated, separately, for 10 minutes, with liver microsomes (1 mg/mL protein), at 37° C., in 100 mM Tris HCl at pH 7.5. After preincubation the reaction was started by adding 1 mM NADPH (pre-equilibrated to […]) and the reaction allowed to proceed for 60 minutes. At 60 minutes, a 50 μL aliquot was removed and quenched with 200 uL of acetonitrile containing a mixture of internal standards (Tolbutamide (500 ng/mL) and Telmistartan (500 ng/mL)) and vortexed then centrifuged at 4000 rmp for 10 minutes (Eppendorf 5810R). The supernatant was transferred to a 96 well plate for LC-MS/MS analysis.
An LC-MS/MS method was devised for the test compounds and the control, using a AB Sciex API 4000 system coupled to a NEXAR™ UHPLC (Shimadzu) system. Analytes were separated on a Phenomenex Kinetex C18 column (50×2.1 mm, 5 μm) using a gradient that was appropriate for each compound, at a flow rate of 1 ml/minute, utilizing a mobile phase of 0.1% formic acid in MILLI-Q™ water (A) and 0.1% formic acid in acetonitrile (B). The MS instrument was operated in positive mode (ESI+)/negative (ESI−). The multiple reaction monitoring (MRM) transition for test and control compounds was used for the LC-MS/MS analysis. MRM transitions for control compound 7-ethoxycoumarinm were Quadropole 1: 191.0, Quadropole 3: 163.0, dwell time: 75 msec, using curtain gas settings of 5 V, ion-spray voltage of 5500 V, temperature of 50° C. and gas settings for nebulizer and auxiliary set to 30 and 40 psi, respectively. The interface heater was kept on. Entrance potential and collision cell exit potential were varied to tune for a specific compound.
Using a suitable LC-MS/MS method, the percentage of drug remaining at 60 minutes ([…]) was assessed by comparing the average analyte to internal standard area ratio at 60 minutes to the average analyte to internal standard area ratio at 0 time control, as a percentage, from a 5 to 10 μL sample injection.
According to the above assay, the representative compounds listed in Table 8 below were active in the Human liver microsome assay at […] and the % of drug remaining after 60 minutes (PDR60), in the presence of NADPH, was assessed by LC-MS/MS. Average PDR60 for the standard compound, 7-ethoxycoumarin was <=65% in the presence of NADPH. Scoring for the test compounds, in the presence of NADPH, was as follows: “A” represents a PDR^60 of 81 to 100%, “B” represents a PDR^60 of 61 to 80%, “C” represents a PDR^60 of 31 to 60% and “D” represents a PDR^60 of 0 to 30%.

Scoring (% of drug remaining after 60 minutes, PDR60) [1] | Compound | EC50 (Rat DRG)
B (a PDR^60 of 61 to 80%) | C=C1CC[C@H]2[C@H](CN)[C@@H]([C@@]3(C)Cc4cn(Cc5ccccc5)nc4C[C@@H]3CO)CC[C@]12C [Ia-19, ((5R,6S)-5-((3aS,4R,5S,7aS)-4-(aminomethyl)-7a-methyl-1-methyleneoctahydro-1H-inden-5-yl)-2-benzyl-5-methyl-4,5,6,7-tetrahydro-2H-indazol-6-yl)methanol] | 2 to 6 µM
D (a PDR^60 of 0 to 30%) | C=C1CC[C@H]2[C@H](CN)[C@@H]([C@@]3(C)Cc4cnn(-c5cccnc5)c4C[C@@H]3CO)CC[C@]12C [Ia-20, ((5R,6S)-5-((3aS,4R,5S,7aS)-4-(aminomethyl)-7a-methyl-1-methyleneoctahydro-1H-inden-5-yl)-5-methyl-1-(pyridin-3-yl)-4,5,6,7-tetrahydro-1H-indazol-6-yl)methanol] | 6 to 15 µM
D (a PDR^60 of 0 to 30%) | C=C1CC[C@H]2[C@H](CN)[C@@H]([C@@]3(C)Cc4cnn(CC(C)(C)C)c4C[C@@H]3CO)CC[C@]12C [Ia-22, ((5R,6S)-5-((3aS,4R,5S,7aS)-4-(aminomethyl)-7a-methyl-1-methyleneoctahydro-1H-inden-5-yl)-5-methyl-1-neopentyl-4,5,6,7-tetrahydro-1H-indazol-6-yl)methanol] | 2 to 6 µM
A (a PDR^60 of 81 to 100%) | C[C@H]1CC[C@H]2[C@H](CN)[C@@H]([C@@]3(C)Cc4cn(-c5ccccc5)nc4C[C@@H]3CO)CC[C@]12C [Ia-36, ((5R,6S)-5-((1S,3aS,4S,5S,7aR)-4-(aminomethyl)-1,7a-dimethyloctahydro-1H-inden-5-yl)-5-methyl-2-phenyl-4,5,6,7-tetrahydro-2H-indazol-6-yl)methanol] | 2 to 6 µM
A (a PDR^60 of 81 to 100%) | C[C@H]1CC[C@H]2[C@H](CN)[C@@H]([C@@]3(C)Cc4cn(C(C)(C)C)nc4C[C@@H]3CO)CC[C@]12C [Ia-41, ((5R,6S)-5-((1S,3aS,4S,5S,7aR)-4-(aminomethyl)-1,7a-dimethyloctahydro-1H-inden-5-yl)-2-(tert-butyl)-5-methyl-4,5,6,7-tetrahydro-2H-indazol-6-yl)methanol] | < 2 µM
D (a PDR^60 of 0 to 30%) | C=C1CC[C@H]2[C@H](CN3CCCCC3)[C@@H]([C@@]3(C)Cc4cn[nH]c4C[C@@H]3CO)CC[C@]12C [Ia-47, ((5R,6S)-5-methyl-5-((3aS,4R,5S,7aS)-7a-methyl-1-methylene-4-(piperidin-1-ylmethyl)octahydro-1H-inden-5-yl)-4,5,6,7-tetrahydro-1H-indazol-6-yl)methanol] | 6 to 15 µM
D (a PDR^60 of 0 to 30%) | C=C1CC[C@H]2[C@H](CN3CCN(C)CC3)[C@@H]([C@@]3(C)Cc4cn[nH]c4C[C@@H]3CO)CC[C@]12C [Ia-48, ((5R,6S)-5-methyl-5-((3aS,4R,5S,7aS)-7a-methyl-1-methylene-4-((4-methylpiperazin-1-yl)methyl)octahydro-1H-inden-5-yl)-4,5,6,7-tetrahydro-1H-indazol-6-yl)methanol] | 6 to 15 µM
A (a PDR^60 of 81 to 100%) | CC=C1CC[C@H]2[C@H](CN)[C@@H]([C@@]3(C)Cc4cn[nH]c4C[C@@H]3CO)CC[C@]12C [Ia-65, ((5R,6S)-5-((3aS,4R,5S,7aS)-4-(aminomethyl)-1-ethylidene-7a-methyloctahydro-1H-inden-5-yl)-5-methyl-4,5,6,7-tetrahydro-1H-indazol-6-yl)methanol] | 6 to 15 µM
D (a PDR^60 of 0 to 30%) | C=C1CC[C@H]2[C@H](CO)[C@@H]([C@@]3(C)Cc4cn[nH]c4C[C@@H]3CN3CCOCC3)CC[C@]12C [Ia-72, ((3aS,4R,5S,7aS)-7a-methyl-5-((5R,6S)-5-methyl-6-(morpholinomethyl)-4,5,6,7-tetrahydro-1H-indazol-5-yl)-1-methyleneoctahydro-1H-inden-4-yl)methanol] | > 15 µM
D (a PDR^60 of 0 to 30%) | C=C1CC[C@H]2[C@H](CN)[C@@H]([C@@]3(C)Cc4cn[nH]c4C[C@@H]3CN3CCOCC3)CC[C@]12C [Ia-76, ((3aS,4R,5S,7aS)-7a-methyl-5-((5R,6S)-5-methyl-6-(morpholinomethyl)-4,5,6,7-tetrahydro-1H-indazo1-5-yl)-1-methyleneoctahydro-1H-inden-4-yl)methanamine] | 6 to 15 µM
B (a PDR^60 of 61 to 80%) | C=C1CC[C@H]2[C@H](CO)[C@@H]([C@@]3(C)Cc4cn[nH]c4C[C@@H]3CN)CC[C@]12C [Ia-82, ((3aS,4R,5S,7aS)-5-((5R,6S)-6-(aminomethyl)-5-methyl-4,5,6,7-tetrahydro-1H-indazol-5-yl)-7a-methyl-1-methyleneoctahydro-1H-inden-4-yl)methanol] | 6 to 15 µM
B (a PDR^60 of 61 to 80%) | C=C1CC[C@H]2[C@H](CN)[C@@H]([C@@]3(C)Cc4nccnc4C[C@@H]3CO)CC[C@]12C [Ib-2, ((6S,7R)-7-((3aS,4R,5S,7aS)-4-(aminomethyl)-7a-methyl-1-methyleneoctahydro-1H-inden-5-yl)-7-methyl-5,6,7,8-tetrahydroquinoxalin-6-yl)methanol] | > 15 µM
A (a PDR^60 of 81 to 100%) | C=C1CC[C@H]2[C@H](CN)[C@@H]([C@@]3(C)Cc4cnc(N)nc4C[C@@H]3CO)CC[C@]12C [Ic-1, ((6R,7S)-2-amino-6-((3aS,4R,5S,7aS)-4-(aminomethyl)-7a-methyl-1-methyleneoctahydro-1H-inden-5-yl)-6-methyl-5,6,7,8-tetrahydroquinazolin-7-yl)methanol] | > 15 µM
A (a PDR^60 of 81 to 100%) | C=C1CC[C@H]2[C@H](CN)[C@@H]([C@@]3(C)Cc4cncnc4C[C@@H]3CO)CC[C@]12C [Ic-3, ((6R,7S)-6-((3aS,4R,5S,7aS)-4-(aminomethyl)-7a-methyl-1-methyleneoctahydro-1H-inden-5-yl)-6-methyl-5,6,7,8-tetrahydroquinazolin-7-yl)methanol] | > 15 µM
C (a PDR^60 of 31 to 60%) | C=C1CC[C@H]2[C@H](CN)[C@@H]([C@@]3(C)Cc4cc[nH]c4C[C@@H]3CO)CC[C@]12C [Id-1, ((5R,6S)-5-((3aS,4R,5S,7aS)-4-(aminomethyl)-7a-methyl-1-methyleneoctahydro-1H-inden-5-yl)-5-methyl-4,5,6,7-tetrahydro-1H-indol-6-yl)methanol] | 6 to 15 µM
